US20090253662A1, “GENETIC RISK ASSESSMENT IN HEART FAILURE: IMPACT OF GENETIC VARIATION OF ALDOSTERONE SYNTHASE PROMOTER POLYMORPHISM” (NitroMed, Inc., priority 2005, published 2009)
Where a name gives a salt, the structure may show the parent alone.

How the values were obtained:
[1] = test system: African American subjects with heart failure; experiment: Left ventricular remodeling by transthoracic echocardiography at baseline and six months; type: in vivo, human
Description: Subjects were followed to an endpoint of death or heart failure hospitalization. Quality of Life Assessment was performed by the Minnesota Living with Heart Failure Questionnaire at baseline and at the six month visit. Left ventricular function was assessed transthoracic echocardiography at baseline and six months. The primary endpoint for A-HeFT was a composite weighted score with three components: mortality, heart failure hospitalization and change in quality of life. Left ventricular remodeling was investigated in a subset of A-HeFT subjects by transthoracic echocardiography at baseline and at six months. Event free survival was compared by genotype class by Kaplan-Meier log rank analysis, using a linear model that predicts an intermediate phenotype for heterozygotes. Continuous variables such as composite scores were compared by genotype class by linear ANOVA. For the interaction of aldosterone genotype and the impact of therapy, outcomes analyzed by genotype were compared first overall and then separately by treatment subset, fixed combination of isosorbide dinitrate and hydralazine versus placebo.

[2] = test system: subjects with severe heart failure; conditions: addition of spironolactone; cited from earlier work
[3] = cited from earlier work
[4] = test system: post myocardial infarction; conditions: addition post myocardial infarction; cited from earlier work
[5] = test system: black cohorts with hypertension; conditions: cited from earlier work

Q: Which results are given for `CC(=O)S[C@@H]1CC2=CC(=O)CC[C@]2(C)[C@H]2CC[C@@]3(C)[C@@H](CC[C@@]34CCC(=O)O4)[C@H]12` [spironolactone]?
A: Left Ventricular Diastolic Diameter (LVDD) at 6 Months ([1]; -344 CC genotype): 6.5 ± 0.8 cm; Left Ventricular Ejection Fraction (LVEF) at 6 Months ([1]; -344 CC genotype): 32 ± 6%; Left Ventricular Diastolic Diameter (LVDD) at 6 Months ([1]; -344 TC genotype): 6.3 ± 1.5 cm; Left Ventricular Diastolic Diameter (LVDD) at 6 Months ([1]; -344 TT genotype): 6.2 ± 1.4 cm; survival [2]: improved survival

Q: For `O=[N+]([O-])O[C@H]1CO[C@H]2[C@@H]1OC[C@H]2O[N+](=O)[O-]` [isosorbide dinitrate, 1,4,3,6-dianhydro-D-glucitol-2,5-dinitrate], which “solubility in organic solvents” value ([3]; organic solvents such as ethanol, ether and chloroform) is on record?
A: freely soluble

Q: What about the solubility in water [3] of the same compound?
A: sparingly soluble

Q: Which survival [4] does the source give for `COC(=O)[C@@H]1CC2=CC(=O)CC[C@]2(C)[C@@]23O[C@@H]2C[C@@]2(C)[C@@H](CC[C@@]24CCC(=O)O4)[C@H]13` [eplerenone] here?
A: improves survival

Q: What about the “effectiveness versus angiotensin II antagonists” value [5] of the same compound?
A: more effective than angiotensin II antagonists

Q: Which solubility in alcohol ([3]; alcohol) does the source give for `NNc1nncc2ccccc12` [Hydralazine hydrochloride, hydralazine hydrochloride] here?
A: slightly soluble

Q: And the solubility in ether ([3]; ether)?
A: very slightly soluble

Q: And the solubility in water [3]?
A: soluble
